Experimental data reported in patent US20220023258A1, “METHODS OF TREATING CONDITIONS RELATED TO THE S1P1 RECEPTOR” (Arena Pharmaceuticals, Inc., priority 2018, published 2022).
Counter-ions that a name gives are not always drawn.

Experiments:
[1] = tested on: patients with ulcerative colitis; experiment: Dose-ranging study in ulcerative colitis: Mayo scores, endoscopic improvement, remission; assay type: in vivo, human; conditions: for improvement in 2-component Mayo Score relative to placebo / improvement in Total Mayo Score relative to placebo: Week 12; for proportion of patients achieving clinical remission, defined by the 3-component Mayo Score / improvement in 3-component Partial Mayo Score relative to placebo / patients who achieved endoscopic improvement: week 12
Description: The treatment formulation was composed of immediate-release, hard gelatin capsules containing L-arginine salt of Compound 1. The placebo was composed of hard gelatin capsules containing microcrystalline cellulose. […] The primary objective of this proof-of-concept study was to determine the effect of treatment with the L-arginine salt of Compound 1 in changing 3-component Mayo Clinic score (score ranging from 0 to 9, including stool frequency, rectal bleeding and findings on endoscopy) at 12 weeks. […] ANCOVA model, adjusted for current oral corticosteroid use, prior exposure to TNF-alpha antagonists, and baseline value, was used to estimate changes in Mayo Clinic Score. Mantel-Haenszel method (estimated treatment difference by adjusting current oral corticosteroid use and prior exposure to TNF-alpha antagonists) used to estimate proportion difference for dichotomous parameters. Missing individual Mayo subscores impacting efficacy measures were imputed using multiple imputation methodology with observed case analysis for sensitivity. […] Hierarchical closed testing procedure for primary and secondary endpoints at 0.05 alpha level was used.

lymphocytes = experiment: Dose-ranging study in ulcerative colitis: lymphocyte counts; assay type: in vivo, human; conditions: 12 weeks
Description: Exploratory endpoints included change from baseline in lymphocyte counts at Weeks 1, 2, 4, 8, and 12; proportion of patients achieving clinical remission at Week 12; and proportion of patients who achieve clinical response at Week 12.

## O=C(O)C[C@H]1CCc2c1[nH]c1ccc(OCc3ccc(C4CCCC4)c(C(F)(F)F)c3)cc21 [L-arginine salt of Compound 1]
[1]; 1 mg q.d., p=0.086
  improvement in 2-component Mayo Score relative to placebo: 0.39
[1]; 1 mg q.d., p=0.128
  improvement in Total Mayo Score relative to placebo: 0.60
[1]; 1 mg q.d., p=0.136
  proportion of patients achieving clinical remission, defined by the 3-component Mayo Score: 16.0%
[1]; 1 mg q.d., p=0.146
  improvement in 3-component Partial Mayo Score relative to placebo: 0.43
[1]; 1 mg q.d., p=0.306
  patients who achieved endoscopic improvement: 22.5%
[1]; 1 mg q.d., p=0.077
  Remission defined by the 4-component Total Mayo Score: 15.4%
[1]; 2 mg q.d., p=0.010
  improvement in Total Mayo Score relative to placebo: 1.27
[1]; 2 mg q.d., p<0.001 vs placebo 8.1%
  proportion of patients achieving clinical remission, defined by the 3-component Mayo Score: 33.0%
[1]; 2 mg q.d., p=0.003 vs placebo 17.8%
  patients who achieved endoscopic improvement: 41.8%
[1]; 2 mg q.d., p=0.009
  improvement in 3-component Partial Mayo Score relative to placebo: 0.99
[1]; dose not printed in sentence (high dose), p=0.002
  improvement in 2-component Mayo Score relative to placebo: 0.84
[1]; dose not printed in sentence (high dose), p=0.004 vs placebo 6.0%
  Remission defined by the 4-component Total Mayo Score: 24.5%
lymphocytes; 1 mg q.d.
  reduction in lymphocytes relative to placebo: 37%
lymphocytes; 2 mg q.d., p<0.001
  reduction in lymphocytes relative to placebo: 57%
